Where two headings read alike, the source gives them in different places.
Experiments:
[1] = tested on: SFTSV; assay: microbe, parasite or virus in culture; assay type: cell-based, severe fever with thrombocytopenia syndrome virus (SFTSV); settings: for EC50: Severe fever with thrombocytopenia syndrome virus, Vero, 72 h
[2] = tested on: Vero cells; settings: African green monkey
[3] = in vitro; settings: African green monkey
[4] = tested on: SFTSV; settings: cited from earlier work
[5] = read-out: EC50: 50% effective concentration (concentration of a drug suppressing SFTSV proliferation by 50%)

| SMILES | EC50 [1, 5] [µM] | CC50 [2] [µM] | CC50 [3] [µM] | other results |
| --- | --- | --- | --- | --- |
| CCN(CC)Cc1cc(Nc2ccnc3cc(Cl)ccc23)ccc1O [Compound 1, Amodiaquine, reference compound] | 19.1 ± 5.1 | > 100 | – | anti-SFTSV effect (in words) [1]: have an anti-SFTSV effect |
| CCN(CC)Cc1cc(Nc2ccnc3cc(F)ccc23)ccc1O [Compound 2, 4-(7-fluoroquinolin-4-ylamino)-2-diethylaminomethylphenol] | 36.6 ± 9.3 | > 100 | – | – |
| CCN(CC)Cc1cc(Nc2ccnc3cc(Br)ccc23)ccc1O [Compound 3, 4-(7-bromoquinolin-4-ylamino)-2-diethylaminomethylphenol] | 31.1 ± 16.8 | > 100 | – | melting point: 194.3 to 195.8 °C |
| CCN(CC)Cc1cc(Nc2ccnc3cc(I)ccc23)ccc1O [Compound 4, 4-(7-iodoquinolin-4-ylamino)-2-diethylaminomethylphenol] | 15.6 ± 4.9 | > 100 | – | melting point: 189.7 to 190.4 °C |
| Oc1ccc(Nc2ccnc3cc(Cl)ccc23)cc1CN1CCCC1 [Compound 5, 4-(7-chloroquinolin-4-ylamino)-2-(1-pyrrolidinylmethyl)phenol] | 14.6 | – | 41.1 | – |
| CCCN(CCC)Cc1cc(Nc2ccnc3cc(Cl)ccc23)ccc1O [Compound 6, 4-(7-chloroquinolin-4-ylamino)-2-dipropylaminomethylphenol] | 58.7 | – | > 100 | melting point: 163.2 to 164.3 °C |
| CCCCN(C)Cc1cc(Nc2ccnc3cc(I)ccc23)ccc1O [Compound 12, 4-(7-iodoquinolin-4-ylamino)-2-butylmethylaminomethylphenol] | – | – | > 50 | EC50 [1]: 6.2 µM |
| CCCCCN(C)Cc1cc(Nc2ccnc3cc(I)ccc23)ccc1O [Compound 13, 4-(7-iodoquinolin-4-ylamino)-2-methylpentylaminomethylphenol] | – | – | > 50 | EC50 [1]: 3.4 µM |
| CCCCCCN(C)Cc1cc(Nc2ccnc3cc(I)ccc23)ccc1O [Compound 14, 4-(7-iodoquinolin-4-ylamino)-2-hexylmethylaminomethylphenol] | – | – | > 50 | EC50 [1]: 8.7 µM |
| NC(=O)c1nc(F)c[nH]c1=O [favipiravir, reference compound] | – | – | – | anti-SFTSV effect (in words) [1]: have an anti-SFTSV effect; anti-SFTSV effect already reported [4]: already reported to have an anti-SFTSV effect |
| NC(=O)c1ncn([C@@H]2O[C@H](CO)[C@@H](O)[C@H]2O)n1 [ribavirin, reference compound] | – | – | – | anti-SFTSV effect (in words) [1]: have an anti-SFTSV effect; anti-SFTSV effect already reported [4]: already reported to have an anti-SFTSV effect |

— patent US11001557B2 (priority 2017, dated 2021)
